This is an account of results in PubChem BioAssay (NCI).

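Compound exposure: 48 hours, 5 concentrations, 96-well plates. GI50 marks 50% less growth. TGI is the concentration that stops growth completely.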

Test in all cases: inhibition of tumour cell growth, NCI panel, 48 h
Assay [1] has as its system NCI-H23 lung.
Assay [2] has as its system M14 melanoma.
Assay [3] relates to SN12C renal.
Assay [4] deals with ACHN renal.
The subject of assay [5] is SK-OV-3 ovarian.
Assay [6] relates to HOP-92 NSCLC.
Assay [7] deals with MCF7 breast.
Assay [8] relates to HCC-2998 colon.
Assay [9] deals with COLO 205 colon.
In assay [10] the test system is BT-549 breast.

For `Cc1cc(S(=O)(=O)Nc2nc3ccccc3s2)c(SCc2ccccc2)cc1Cl`, the GI50 was 13.8 µM in assay [1]; 19.2 µM in assay [2]; 14.3 µM in assay [3]; 14 µM in assay [4]; 32.4 µM in [5]; 11.8 µM in assay [6]. In addition, the GI50 is 31 µM in assay [7], 13.8 µM in assay [8], 30 µM in assay [9] and 20.9 µM in assay [10]. Besides, the TGI is 26.7 µM in assay [1]; 36.6 µM in assay [2]; 28.6 µM in [3]; 27.8 µM in assay [4]; 98.4 µM in assay [5]; 43.6 µM in assay [6]. Moreover, the TGI was greater than 100 µM in [7], 26.7 µM in assay [8], 68.4 µM in assay [9] and 60.5 µM in [10].
On to `O=C(O)[C@@H](Cc1ccccc1)NS(=O)(=O)c1ccc(-c2ccccc2)cc1`, for which the GI50 in [1] is greater than 100 µM; in assay [2] it was greater than 100 µM; in [3], greater than 100 µM; in [4], greater than 100 µM; in assay [5], greater than 100 µM; in [6] it was 24.9 µM. For the same compound, the GI50 in assay [7], in assay [8], in [9] and in assay [10] was greater than 100 µM throughout. In addition, the TGI in assay [1], in [2], in [3], in [4], in assay [5] and in assay [6] was greater than 100 µM in each case. The TGI in [7], in assay [8], in [9] and in assay [10] was greater than 100 µM throughout.
`O=[N+]([O-])c1ccc(NC(c2ccccc2)c2ccc3cccnc3c2O)cc1` (stereo not given): the GI50 was 0.414 µM in assay [1]; 0.308 µM in assay [2]; 0.935 µM in assay [3]; 0.351 µM in [4]; 0.5 µM in assay [5]; 0.234 µM in [6]. Moreover, the GI50 in assay [7] is 0.335 µM; in [8], 0.418 µM; in [9], 0.448 µM; in [10], 0.601 µM. Further, the TGI is greater than 100 µM in assay [1]; greater than 100 µM in assay [2]; greater than 100 µM in assay [3]; greater than 89.9 µM in [4]; greater than 100 µM in [5]; greater than 100 µM in assay [6]. Further, the TGI in assay [7] is greater than 100 µM; in assay [8], greater than 100 µM; in assay [9], greater than 100 µM; in [10], 43.2 µM.
Take `Nc1nc(N)c2c(n1)NC(c1ccc(Cl)cc1)C1CCc3ccccc3C1=N2` (stereo not given): the GI50 in assay [1] was 4.88 µM; in assay [2], 10.4 µM; in assay [3] it was 7.68 µM; in [4], 4.72 µM; in assay [5] it was 11 µM; in [6] it was 2.26 µM. Besides, the GI50 is 2.41 µM in [7], 12.2 µM in assay [8], 2.78 µM in assay [9] and 9.01 µM in assay [10]. Besides, the TGI in assay [1] came out at 18 µM; in assay [2] it was 22.1 µM; in assay [3] it was 21.7 µM; in assay [4], 18.3 µM; in [5] it was 23 µM; in [6] it was 9.83 µM. Besides, the TGI came to 10.4 µM in assay [7], 24.7 µM in assay [8], 9.05 µM in assay [9] and 22.6 µM in assay [10].
Turning to `CCN(Cc1c(F)cccc1C(F)(F)F)c1ccc(CO)c(Cl)c1`, the GI50 in assay [1] is 14.4 µM; in assay [2], 17.4 µM; in assay [3] it was 13 µM; in [4] it was 15 µM; in assay [5] it was 13.7 µM; in assay [6] it was 0.856 µM. Moreover, the GI50 in [7] was 0.156 µM; in [8], 16.7 µM; in assay [9] it was 2.44 µM; in [10], 17.7 µM. For the same compound, the TGI in assay [1] is 31.7 µM; in [2] it was 33.4 µM; in assay [3], 26.2 µM; in assay [4], 28.6 µM; in assay [5], 26.8 µM; in [6] it was 16 µM. In addition, the TGI in assay [7] worked out at 15.7 µM; in [8], 33 µM; in assay [9] it was 14 µM; in assay [10], 32 µM.
For the compound `Cc1cccc(Nc2ncc(-c3ccccc3)o2)c1`, the GI50 in assay [1], in assay [2], in assay [3], in assay [4], in assay [5] and in assay [6] was greater than 25 µM in each case. Besides, the GI50 in assay [7] was 12.9 µM; in [8], greater than 25 µM; in assay [9], greater than 25 µM; in assay [10], greater than 25 µM. In addition, the TGI in [1], in assay [2], in [3], in [4], in [5] and in assay [6] was greater than 25 µM in each case. Also, the TGI in [7], in assay [8], in [9] and in assay [10] was greater than 25 µM throughout.
